SMILES strings stand for the structures.

A short description of data set [1]: Largest Soluble Hydrocarbon (LSH) test. The following applies: hydrofluoroolefin:hydrocarbon about 1:1 to 1:2 by weight. It is filed as physicochemical. The method, then: Largest Soluble Hydrocarbon (LSH): The LSH of each hydrofluoroolefin compound was determined by mixing the compound with hydrocarbons of varying molecular weight (CnH2n+2, where n=9 to 24) in a hydrofluoroolefin:hydrocarbon ratio of about 1:1 to 1:2 by weight at room temperature (25° C.) and at 50° C. […] A larger value of n is interpreted herein to indicate a greater ability of the hydrofluoroolefin to clean hydrocarbons.
The results presented in Table 2 indicate that the hydrofluoroolefins of the present invention are highly suitable fluids for cleaning applications.

The nature of data set [2]: Atmospheric lifetime from rates of reaction with hydroxyl radicals. It is filed as physicochemical. The following applies: Degrades by direct photolysis and ozonolysis; value stated as 'Likely'. The method, then: Atmospheric lifetime: The atmospheric lifetimes of hydrobromofluoroolefin Examples 1-3 were determined from their rates of reaction with hydroxyl radicals. The pseudo-first order rate for the reaction of the gaseous hydrobromofluoroolefin with hydroxyl radical was measured in a series of experiments relative to reference compounds such as chloromethane and ethane. The measurements were performed in a 5.7 L, heated FTIR gas cell equipped with a polished semiconductor-grade quartz window. An Oriel Instruments UV Lamp, Model 66921 equipped with a 480W mercury-xenon bulb was used to generate hydroxyl radicals by photolyzing ozone in the presence of water vapor. The concentrations of the hydrobromofluoroolefin and the reference compound were measured as a function of reaction time using an I-Series FTIR from Midac Corporation. The atmospheric lifetime was calculated from the reaction rates for the hydrobromofluoroolefin relative to the reference compounds and the reported lifetime of the reference compounds as shown below:
where τx is the atmospheric lifetime of hydrobromofluoroolefin, τr is the atmospheric lifetime of the reference compound, and kx and kr are the rate constants for the reaction of hydroxyl radical with hydrobromofluoroolefin and the reference compound, respectively.
The atmospheric lifetimes of Examples 1-3 were determined from their rates of reaction with hydroxyl radicals as described above and are reported in Table 3.

Where [3] appears, read: 25° C., longest hydrocarbon compatible without haze.
The mark [4] stands for this setting: 50° C., >23 = miscible with C23H48 without haze.

In the case of `FC(=CBr)C(F)(F)F` [Example 1, 1-bromo-2,3,3,3-tetrafluoroprop-1-ene], the “LSH (n in CnH2n+2)” value is 19 in data set [1] (setting [3]) and >23 in data set [1] (setting [4]). For the same compound, in data set [2], the “Atmospheric Lifetime” value was “ozonolysis. Likely <0.05 years”.
Consider `FC(=CBr)C(F)(F)C(F)(F)F` [Example 2, 1-bromo-2,3,3,4,4,4-hexafluorobut-1-ene], for which the “LSH (n in CnH2n+2)” value in data set [1] (setting [3]) is reported as 19; in data set [1] (setting [4]), >23. The “Atmospheric Lifetime” value in data set [2] is recorded as “ozonolysis. Likely <0.05 years”.
For `FC(=CBr)C(F)F` [Example 3, 1-bromo-2,3,3-trifluoroprop-1-ene], in that order: 19, >23 and “ozonolysis. Likely <0.05 years”.
Turning to `FC(=CBr)C(F)(F)C(F)(F)C(F)F` [Example 4, I-bromo-2,3,3,4,4,5,5-heptafluoropent-1-ene], the entries for the “LSH (n in CnH2n+2)” value in data set [1] (setting [3]) and in data set [1] (setting [4]) were 19 and >23, respectively.
For `FC(=CCl)C(F)(F)C(F)(F)C(F)(F)F` [Example 5, 1-chloro-2,3,3,4,4,5,5,5-pent-1-ene], in that order: 17 and 22.
`FC(=CCl)C(F)(F)C(F)(F)F` [Example 6, 1-chloro-2,3,3,4,4,4-but-1-ene]: the “LSH (n in CnH2n+2)” value in data set [1] (setting [3]) is reported as 19.
On to `FC(=CCl)C(F)(F)OC(F)(F)F` [Example 7, 1-chloro-2,3,3-trifluoro-3-(trifluoromethoxy)prop-1-ene], for which the “LSH (n in CnH2n+2)” value is listed as 19 in data set [1] (setting [3]) and >23 in data set [1] (setting [4]).
For `FC(=CCl)N1C(F)(F)C(F)(F)OC(F)(F)C1(F)F` [Example 8, 4-(2-chloro-1-fluoro-vinyl)-2,2,3,3,5,5,6,6-octafluoro-morpholine], in that order: 14 and 18.
For `FC(=CCl)C(F)(F)N(C(F)(F)F)C(F)(F)C(F)(F)F` [Example 9, 3-chloro-1,1,2-trifluoro-N-(1,1,2,2,2-pentafluoroethyl)-N-(trifluoromethyl)prop-2-en-1-amine], in that order: 13 and 17.
For `FC(=CCl)C(F)C(F)(F)F` (stereo not drawn) [Example 10, 1-chloro-2,3,4,4,4-pentafluoro-but-1-ene], in that order: 19 and >23.
Consider `FC(=CCl)C(F)OC(F)(F)F` (stereo not drawn) [Example 11, 1-chloro-2,3-difluoro-3-(trifluoromethoxy)prop-1-ene], for which the “LSH (n in CnH2n+2)” value is 18 in data set [1] (setting [3]) and >23 in data set [1] (setting [4]).
